From patent US10221163B2 (priority 2015, dated 2019)
Read-outs that look alike come from different tables or passages of the source.

Assays:
[1] = system: Pseudomonas aeruginosa efflux+ (MB9798), IMP-1; format: cell-based; design: Concentration of metallo-β-lactamase inhibitor which restores susceptibility of efflux + (MB9798) strain to imipenem: unit not given here; conditions: C, D serine β-lactamase inhibitor closely related to relebactam; for P. aeruginosa expressing IMP-1, efflux + (MB9798) MITC95: concentration restoring susceptibility to imipenem at 2 μg/mL in the presence of a class A; for Concentration of metallo-β-lactamase inhibitor which restores susceptibility of efflux + (MB9798) strain to imipenem: imipenem at 2 μg/mL, in the presence of a class A
Method in brief: (§1)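 Microbroth MIC tests in PAO1-background strains with fixed imipenem and/or ceftazidime, usually at the CLSI breakpoint, plus fixed class A/C β-lactamase inhibitor against AmpC. MBL inhibitor titrated; concentration restoring susceptibility recorded and compared as fold difference between efflux+ MB9798 and efflux− MB9799.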

[2] = system: Klebsiella pneumoniae expressing VIM-1 (IHMA599644); format: cell-based; conditions: for Klebsiella pneumoniae MITC95: VIM-1 strain IHMA599644, with imipenem 1 μg/ml, 95% inhibition of growth; for Klebsiella pneumoniae expressing VIM-1 (IHMA599644) MITC95: with imipenem 1 μg/ml, 95% inhibition of bacterial growth
Method in brief: (§2)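 Colonies grown overnight on blood agar at 35° C were suspended in saline, diluted 1:100 into 1.1×CAMHB and dispensed. Imipenem was added to 1 μg/ml, then test compound. After 22 hours to 24 hours at 35° C, absorbance was recorded.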

[3] = system: Escherichia coli expressing NDM-1 (CLB30005, CLB30016); format: cell-based; conditions: with imipenem 1 μg/ml; for Escherichia coli MITC95: NDM-1 strain, 95% inhibition of growth; for Escherichia coli expressing NDM-1 (CLB30016) MITC95: 95% inhibition of bacterial growth
Method in brief: as §2

[4] = system: Serratia marcescens expressing IMP-1 (CL5741); format: cell-based; conditions: for Serratia marcescens MITC95: IMP-1 strain CL5741, with imipenem 1 μg/ml, 95% inhibition of growth; for Serratia marcescens expressing IMP-1 (CL5741) MITC95: with imipenem 1 μg/ml, 95% inhibition of bacterial growth
Method in brief: as §2

[5] = system: Pseudomonas aeruginosa MB9798 vs MB9799
Method in brief: as §1

[6] = target: NDM-1 (Klebsiella pneumoniae, UniProt C7C422); assay: biochemical; format: biochemical; conditions: fluorescence assay, CCF2-FA substrate, 1 pM enzyme, 2 hours at 25° C.; read-out: NDM-1 IC50
Method in brief: (§3)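 Fluorescence assay of metallo-β-lactamase activity using CCF2-FA, a cephalosporin-linked 7-hydroxycoumarin–fluorescein substrate. Inhibitor, enzyme and substrate were incubated together for 2 hours at 25° C. IC50 came from a 4-parameter fit of inhibition versus inhibitor concentration.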

[7] = target: IMP-1 (Serratia marcescens, UniProt P52699); assay: biochemical; format: biochemical; conditions: CCF2-FA substrate, 2 pM enzyme, 2 hours at 25° C.
Method in brief: as §3

[8] = system: Pseudomonas aeruginosa efflux− (MB9799), IMP-1; format: cell-based; conditions: C, D serine β-lactamase inhibitor closely related to relebactam; for P. aeruginosa expressing IMP-1, efflux − (MB9799) MITC95: concentration restoring susceptibility to imipenem at 2 μg/mL in the presence of a class A; for Concentration of metallo-β-lactamase inhibitor which restores susceptibility of efflux − (MB9799) strain to imipenem: imipenem at 2 μg/mL, in the presence of a class A
Method in brief: as §1

[9] = target: VIM-1 (Pseudomonas aeruginosa (strain ATCC 15692 / DSM 22644 / CIP 104116 / JCM 14847 / LMG 12228 / 1C / PRS 101 / PAO1), UniProt A0A0F7KYQ8); assay: biochemical; conditions: CCF2-FA substrate, 30 pM enzyme, 2 hours at 25° C.
Method in brief: as §3

[10] = ratio MITC95 PA_9798/MITC95 PA_9799
[11] = fluorescence assay, read-out: IMP-1 IC50
[12] = fluorescence assay, read-out: VIM-1 IC50
[13] = fold difference between efflux+ (MB9798) and efflux− (MB9799) strains, imipenem at 2 μg/mL

Sequence of NDM-1 (C7C422 whole entry, looked up, species assumed): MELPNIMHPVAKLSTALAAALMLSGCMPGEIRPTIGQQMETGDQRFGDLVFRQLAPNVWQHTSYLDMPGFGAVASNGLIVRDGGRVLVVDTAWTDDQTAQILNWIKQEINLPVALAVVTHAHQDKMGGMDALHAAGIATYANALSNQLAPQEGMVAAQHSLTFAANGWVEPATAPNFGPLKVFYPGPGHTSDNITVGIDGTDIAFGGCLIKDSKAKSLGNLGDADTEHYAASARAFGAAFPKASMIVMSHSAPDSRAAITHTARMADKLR
Sequence of IMP-1 (P52699 whole entry, looked up, species assumed): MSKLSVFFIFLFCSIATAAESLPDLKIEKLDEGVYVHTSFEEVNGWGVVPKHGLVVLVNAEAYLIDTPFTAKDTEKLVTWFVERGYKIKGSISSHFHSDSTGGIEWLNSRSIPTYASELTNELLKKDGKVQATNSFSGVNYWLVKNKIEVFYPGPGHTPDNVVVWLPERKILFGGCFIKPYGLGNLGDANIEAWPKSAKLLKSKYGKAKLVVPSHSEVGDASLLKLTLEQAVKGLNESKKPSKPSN

NCCNS(=O)(=O)c1ccc(-c2cccc(NC[C@H](N)CO)c2)c(-c2nn[nH]n2)c1S(N)(=O)=O [Example 350, (S)-3′-((2-amino-3-hydroxypropyl)amino)-N4-(2-aminoethyl)-2-(2H-tetrazol-5-yl)-[1,1′-biphenyl]-3,4-disulfonamide]
P. aeruginosa expressing IMP-1, efflux + (MB9798) MITC95 [1]: 0.7813 µM
Klebsiella pneumoniae MITC95 [2]: 0.7813 µM
Escherichia coli MITC95 [3]: 0.7813 µM
Serratia marcescens MITC95 [4]: 0.7813 µM
Efflux ratio [5, 10]: 1.00
IC50 [6]: 1.72 nM
IC50 [7, 11]: 4.4 nM
P. aeruginosa expressing IMP-1, efflux − (MB9799) MITC95 [8]: 0.7813 µM
IC50 [9, 12]: 0.412 nM

NC[C@@H]1C[C@@H](NS(=O)(=O)c2ccc(-c3cccc4[nH]c(N)nc34)c(-c3nn[nH]n3)c2S(N)(=O)=O)CN1 [Example 425, 4-(2-amino-1H-benzo[d]imidazol-4-yl)-N^1-((3R,5S)-5-(aminomethyl)pyrrolidin-3-yl)-3-(2H-tetrazol-5-yl)benzene-1,2-disulfonamide]
Concentration of metallo-β-lactamase inhibitor which restores susceptibility of efflux + (MB9798) strain to imipenem [1]: 1.563
Klebsiella pneumoniae MITC95 [2]: 3.125 µM
Escherichia coli MITC95 [3]: 0.7813 µM
Serratia marcescens MITC95 [4]: 3.125 µM
Efflux ratio [5, 13]: 1.00
IC50 [6]: 0.0419 nM
IC50 [7, 11]: 0.886 nM
Concentration of metallo-β-lactamase inhibitor which restores susceptibility of efflux − (MB9799) strain to imipenem [8]: 1.563
IC50 [9, 12]: 0.16 nM

NCCNS(=O)(=O)c1ccc(-c2cccc3[nH]c(C(F)(F)CN)nc23)c(-c2nn[nH]n2)c1S(N)(=O)=O [Example 445, 4-(2-(2-amino-1,1-difluoroethyl)-1H-benzo[d]imidazol-4-yl)-N1-(2-aminoethyl)-3-(2H-tetrazol-5-yl)benzene-1,2-disulfonamide]
Concentration of metallo-β-lactamase inhibitor which restores susceptibility of efflux + (MB9798) strain to imipenem [1]: 1.563
Klebsiella pneumoniae MITC95 [2]: 3.125 µM
Escherichia coli MITC95 [3]: 3.125 µM
Serratia marcescens MITC95 [4]: 3.125 µM
Efflux ratio [5, 13]: 1.00
IC50 [6]: 0.0446 nM
IC50 [7, 11]: 0.37 nM
Concentration of metallo-β-lactamase inhibitor which restores susceptibility of efflux − (MB9799) strain to imipenem [8]: 1.563
IC50 [9, 12]: 0.114 nM

NCc1csc(Nc2cccc(-c3ccc(S(=O)(=O)N[C@@H]4CCNC4)c(S(N)(=O)=O)c3-c3nn[nH]n3)c2)n1 [Example 290, (R)-3′-((4-(aminomethyl)thiazol-2-yl)amino)-N4-(pyrrolidin-3-yl)-2-(2H-tetrazol-5-yl)-[1,1′-biphenyl]-3,4-disulfonamide]
P. aeruginosa expressing IMP-1, efflux + (MB9798) MITC95 [1]: 0.7813 µM
Klebsiella pneumoniae MITC95 [2]: 0.7813 µM
Escherichia coli MITC95 [3]: 0.1953 µM
Serratia marcescens MITC95 [4]: 0.7813 µM
Efflux ratio [5, 10]: 2.00
IC50 [6]: 0.0873 nM
IC50 [7, 11]: 0.448 nM
P. aeruginosa expressing IMP-1, efflux − (MB9799) MITC95 [8]: 0.3906 µM
IC50 ([9]; VIM-1 IC50, fluorescence assay): 0.104 nM

CNC(=O)CNS(=O)(=O)c1ccc(-c2cccc3sc(N)nc23)c(-c2nnn[nH]2)c1S(N)(=O)=O [Example 23, N^2-{[4-(2-amino-1,3-benzothiazol-4-yl)-2-sulfamoyl-3-(1H-tetrazol-5-yl)phenyl]sulfonyl}-N-methylglycinamide]
P. aeruginosa expressing IMP-1, efflux + (MB9798) MITC95 [1]: 3.125 µM
Klebsiella pneumoniae expressing VIM-1 (IHMA599644) MITC95 [2]: 12.5 µM
Escherichia coli expressing NDM-1 (CLB30016) MITC95 [3]: 25 µM
Serratia marcescens expressing IMP-1 (CL5741) MITC95 [4]: 6.25 µM
Efflux ratio [5, 10]: 1.00
IC50 [6]: 0.0511 nM
IC50 [7, 11]: 0.294 nM
P. aeruginosa expressing IMP-1, efflux − (MB9799) MITC95 [8]: 3.125 µM
IC50 ([9]; VIM-1 IC50, fluorescence assay): 0.224 nM

NCc1nc2c(-c3ccc(S(=O)(=O)N[C@@H](CN)CO)c(S(N)(=O)=O)c3-c3nn[nH]n3)cccc2s1 [Example 381, (S)—N1-(1-amino-3-hydroxypropan-2-yl)-4-(2-(aminomethyl)benzo[d]thiazol-4-yl)-3-(2H-tetrazol-5-yl)benzene-1,2-disulfonamide]
P. aeruginosa expressing IMP-1, efflux + (MB9798) MITC95 [1]: 1.172 µM
Klebsiella pneumoniae MITC95 [2]: 2.344 µM
Escherichia coli MITC95 [3]: 0.7813 µM
Serratia marcescens MITC95 [4]: 1.172 µM
Efflux ratio [5, 10]: 1.50
IC50 [6]: 0.0602 nM
IC50 [7, 11]: 0.241 nM
P. aeruginosa expressing IMP-1, efflux − (MB9799) MITC95 [8]: 0.7813 µM
IC50 ([9]; VIM-1 IC50, fluorescence assay): 0.117 nM

CN1CC(NS(=O)(=O)c2ccc(-c3cccc4[nH]c(N)nc34)c(-c3nn[nH]n3)c2S(N)(=O)=O)C1 [Example 256, 4-(2-amino-1H-benzo[d]imidazol-4-yl)-N1-(1-methylazetidin-3-yl)-3-(2H-tetrazol-5-yl)benzene-1,2-disulfonamide]
P. aeruginosa expressing IMP-1, efflux + (MB9798) MITC95 [1]: 0.7813 µM
Klebsiella pneumoniae MITC95 [2]: 1.563 µM
Escherichia coli MITC95 [3]: 0.3906 µM
Serratia marcescens MITC95 [4]: 0.7813 µM
Efflux ratio [5, 10]: 1.00
IC50 [6]: 0.0416 nM
IC50 [7, 11]: 0.609 nM
P. aeruginosa expressing IMP-1, efflux − (MB9799) MITC95 [8]: 0.7813 µM
IC50 [9, 12]: 0.168 nM

NCCNS(=O)(=O)c1ccc(-c2ccccc2NC(=O)CN)c(-c2nn[nH]n2)c1S(N)(=O)=O [Example 452]
Concentration of metallo-β-lactamase inhibitor which restores susceptibility of efflux + (MB9798) strain to imipenem [1]: 6.25
Klebsiella pneumoniae MITC95 [2]: 6.25 µM
Escherichia coli MITC95 [3]: 3.125 µM
Serratia marcescens MITC95 [4]: 3.125 µM
Efflux ratio [5, 13]: 4.00
IC50 [6]: 1.72 nM
IC50 [7, 11]: 6.21 nM
Concentration of metallo-β-lactamase inhibitor which restores susceptibility of efflux − (MB9799) strain to imipenem [8]: 1.563
IC50 [9, 12]: 0.994 nM

NCC1CN(S(=O)(=O)c2ccc(-c3cccc4sc(N)nc34)c(-c3nnn[nH]3)c2S(N)(=O)=O)CCO1.O=C(O)C(F)(F)F (stereo not drawn) [Example 104, (4-((4-(2-aminobenzo[d]thiazol-4-yl)-2-sulfamoyl-3-(1H-tetrazol-5-yl)phenyl)sulfonyl)morpholin-2-yl)methanaminium 2,2,2-trifluoroacetate]
P. aeruginosa expressing IMP-1, efflux + (MB9798) MITC95 [1]: 3.125 µM
Klebsiella pneumoniae expressing VIM-1 (IHMA599644) MITC95 [2]: 6.25 µM
Escherichia coli expressing NDM-1 (CLB30016) MITC95 [3]: 1.563 µM
Serratia marcescens expressing IMP-1 (CL5741) MITC95 [4]: 3.125 µM
Efflux ratio [5, 10]: 2.00
IC50 [6]: 0.229 nM
IC50 [7, 11]: 1.24 nM
P. aeruginosa expressing IMP-1, efflux − (MB9799) MITC95 [8]: 1.563 µM
IC50 [9, 12]: 1.59 nM

C[N+](C)(C)CCNS(=O)(=O)c1ccc(-c2cccc3sc(N)nc23)c(-c2nnn[nH]2)c1S(N)(=O)=O.O=C([O-])C(F)(F)F [Example 391, 2-({[4-(2-amino-1,3-benzothiazol-4-yl)-2-sulfamoyl-3-(1H-tetrazol-5-yl)phenyl]sulfonyl}amino)-N,N,N-trimethylethanaminium trifluoroacetate]
Concentration of metallo-β-lactamase inhibitor which restores susceptibility of efflux + (MB9798) strain to imipenem [1]: 1.563
Klebsiella pneumoniae MITC95 [2]: 6.25 µM
Escherichia coli MITC95 [3]: 3.125 µM
Serratia marcescens MITC95 [4]: 3.125 µM
Efflux ratio [5, 13]: 1.00
IC50 [6]: 0.028 nM
IC50 ([7]; IMP-1 IC50, fluorescence assay): 0.209 nM
Concentration of metallo-β-lactamase inhibitor which restores susceptibility of efflux − (MB9799) strain to imipenem [8]: 1.563
IC50 [9, 12]: 0.0965 nM

NC[C@H](O)CNS(=O)(=O)c1ccc(-c2cccc3[nH]cnc23)c(-c2nn[nH]n2)c1S(N)(=O)=O [Example 307, (S)-4-(1H-benzo[d]imidazol-4-yl)-N1-(3-amino-2-hydroxypropyl)-3-(2H-tetrazol-5-yl)-benzene-1,2-disulfonamide]
P. aeruginosa expressing IMP-1, efflux + (MB9798) MITC95 [1]: 0.7813 µM
Klebsiella pneumoniae MITC95 [2]: 1.563 µM
Escherichia coli MITC95 [3]: 1.563 µM
Serratia marcescens MITC95 [4]: 1.563 µM
Efflux ratio [5, 10]: 1.00
IC50 [6]: 0.0339 nM
IC50 [7, 11]: 0.258 nM
P. aeruginosa expressing IMP-1, efflux − (MB9799) MITC95 [8]: 0.7813 µM
IC50 [9, 12]: 0.113 nM
